# Experimental data reported in ChEMBL document CHEMBL2203134, “Discovery of XL888: a novel tropane-derived small molecule inhibitor of HSP90” (Bioorg Med Chem Lett, 2012).
# Calls of active or inactive are those of the source. The rule behind the calls is not given here.
# What was measured:
# Mus musculus [1] = test: Inhibition of Hsp90 in human COLO205 cells xenografted in mouse assessed as Her2 degradation at 100 mg/kg administered QD for 2 days measured 8 hrs post-last dose; assay type: functional; settings: COLO 205
# Mus musculus [2] = test: Inhibition of Hsp90 in human COLO205 cells xenografted in mouse assessed as Raf1 degradation at 100 mg/kg administered QD for 2 days measured 8 hrs post-last dose; assay type: functional; settings: COLO 205
# Heat shock protein HSP90 [3] = molecular target: T1, Heat shock protein HSP90 (Homo sapiens, UniProt P07900+P08238); test: Inhibition of Hsp90 in human NCI-N87 cells assessed as Her2 degradation after 24 hrs by Western blot analysis; assay type: cell-based
# Heat shock protein HSP90 [4] = molecular target: T1, Heat shock protein HSP90; test: Displacement of biotinylated geldanamycin from human His-tagged Hsp90 by TR-FRET assay; assay type: protein assay
# [5] = Oral bioavailability in rat at 2.5 mg/kg; assay type: ADME, organism-based; settings: in vivo
# [6] = Half life in rat at 2.5 mg/kg, iv; assay type: ADME, organism-based; parameters: dose 2.5 mg/kg, route intravenous; settings: in vivo
# [7] = Clearance in rat at 2.5 mg/kg, iv; assay type: ADME, organism-based; parameters: dose 2.5 mg/kg, route intravenous; settings: in vivo
# [8] = Apparent permeability across MDCK cells; assay type: ADME, cell-based, Canis lupus familiaris; settings: dog
# Rattus norvegicus [9] = test: Dose normalized AUC in rat at 2.5 mg/kg, iv; assay type: ADME, organism-based; parameters: dose 2.5 mg/kg, route intravenous; settings: in vivo
# Heat shock protein HSP90 [10] = molecular target: T1, Heat shock protein HSP90; test: Inhibition of Hsp90 in human A549 cells assessed as Raf1 degradation after 24 hrs by Western blot analysis; assay type: cell-based
# [11] = Half life in rat at 5 mg/kg, iv; assay type: ADME, organism-based; parameters: dose 5 mg/kg, route intravenous; settings: in vivo
# [12] = Oral bioavailability in rat at 5 mg/kg; assay type: ADME, organism-based; settings: in vivo
# [13] = Clearance in rat at 5 mg/kg, iv; assay type: ADME, organism-based; parameters: dose 5 mg/kg, route intravenous; settings: in vivo
# Rattus norvegicus [14] = test: Dose normalized AUC in rat at 5 mg/kg, iv; assay type: ADME, organism-based; parameters: dose 5 mg/kg, route intravenous; settings: in vivo
# [15] = Drug metabolism in mouse liver microsomes at 15 uM after 30 mins; assay type: ADME, Microsome; settings: read-out: Drug metabolism
# [16] = Drug metabolism in human liver microsomes at 15 uM after 30 mins; assay type: ADME, Microsome; settings: read-out: Drug metabolism
# [17] = Kinetic solubility of the compound; assay type: physicochemical; settings: read-out: Kinetic_solubility
# [18] = Clearance in iv dosed rat; assay type: ADME, organism-based; settings: in vivo
# [19] = Half life in iv dosed rat; assay type: ADME, organism-based; settings: in vivo
# Rattus norvegicus [20] = test: Dose normalized AUC in iv dosed rat; assay type: ADME, organism-based; settings: in vivo
# [21] = Oral bioavailability in rat; assay type: ADME, organism-based; settings: in vivo
SMILES,IC50 (Heat shock protein HSP90 [3]),IC50 (Heat shock protein HSP90 [4]),bioavailability [5],half-life [6],clearance [7],Papp [8],AUC/dose (Rattus norvegicus [9]),IC50 (Heat shock protein HSP90 [10]),also measured
CO[C@H]1/C=C\C=C(/C)C(=O)NC2=CC(=O)C(NCCN(C)C)=C(C[C@@H](C)C[C@H](OC)[C@H](O)[C@@H](C)/C=C(\C)[C@@H]1OC(N)=O)C2=O [ALVESPIMYCIN],,,,,,,,,inhibition (Mus musculus [1]): inactive; inhibition in vivo at 100 mg/kg (Mus musculus [2]): 84%
Cc1cc(C(N)=O)c(NC2CCCC2)cc1C(=O)NC1CC2CCC(C1)N2c1ccc(C(=O)C2CC2)cn1 (stereo not given),316 nM,27 nM,28%,1.1 h,14.5 mL/min/kg,14.6 ×10⁻⁶ cm/s,2.26 µM·kg·h/mg,,
O=C(NCc1ccccc1)c1ccc(N2C3CCC2CC(NC(=O)c2ccc(CO)cc2)C3)nc1 (stereo not given),,322 nM,,,,2.5 ×10⁻⁶ cm/s,,5400 nM,
CCC(CC)Nc1cc(C(=O)NC2CC3CCC(C2)N3c2ccc(C(C)=O)cn2)ccc1C(N)=O (stereo not given),52 nM,38 nM,,,,67.6 ×10⁻⁶ cm/s,,,half-life [11]: 0.5 h; bioavailability [12]: 5%; clearance [13]: 28.5 mL/min/kg; AUC/dose (Rattus norvegicus [14]): 1.22 µM·kg·h/mg
Cc1cc(C(N)=O)ccc1C(=O)NC1CC2CCC(C1)N2c1ccc(C(=O)NCc2ccccc2)cn1 (stereo not given),,598 nM,,,,0.21 ×10⁻⁶ cm/s,,2700 nM,
Cc1cc(CO)ccc1C(=O)NC1CC2CCC(C1)N2c1ccc(C(=O)NCc2ccccc2)cn1 (stereo not given),,128 nM,,,,3 ×10⁻⁶ cm/s,,1900 nM,
Cc1cc(C(=O)NC2CC3CCC(C2)N3c2ccc(C(=O)N[C@@H](C)c3ccc(N4CCN(C)CC4)cc3)cn2)c(C)cc1C(N)=O (stereo not given in full),,53 nM,,,,< 0.01 ×10⁻⁶ cm/s,,2900 nM,
COc1cccc(C(=O)NC2CC3CCC(C2)N3c2ccc(C(=O)NCc3ccccc3)cn2)c1C (stereo not given),,,4%,0.72 h,38.1 mL/min/kg,50.5 ×10⁻⁶ cm/s,0.9 µM·kg·h/mg,,"metabolised at 0.5 h, 15 µM [15]: 79%; metabolised at 0.5 h, 15 µM [16]: 64%; solubility kinetic [17]: 4.1 µM"
C[C@H](NC(=O)c1ccc(N2C3CCC2CC(NC(=O)c2ccc(C(N)=O)c(Nc4ccccc4)c2)C3)nc1)c1ccc(N2CCN(C)CC2)cc1 (stereo not given in full),,260 nM,,,,0.32 ×10⁻⁶ cm/s,,105 nM,
CCC(CC)Nc1cc(C(=O)NC2CC3CCC(C2)N3c2ccc(C(=O)C3CC3)cn2)ccc1C(N)=O (stereo not given),117 nM,86 nM,,,,14.1 ×10⁻⁶ cm/s,,,half-life [11]: 0.5 h; bioavailability [12]: 11%; clearance [13]: 39.7 mL/min/kg; AUC/dose (Rattus norvegicus [14]): 0.78 µM·kg·h/mg
Cc1cc(C(N)=O)c(NCC2CC2)cc1C(=O)NC1CC2CCC(C1)N2c1ccc(C(=O)C2CC2)cn1 (stereo not given),245 nM,25 nM,51%,0.9 h,19.7 mL/min/kg,22.3 ×10⁻⁶ cm/s,1.7 µM·kg·h/mg,,
NC(=O)c1ccc(C(=O)NC2CC3CCC(C2)N3c2ccc(C(=O)C3CC3)cn2)cc1NCC1CC1 (stereo not given),494 nM,120 nM,41%,22 h,8.43 mL/min/kg,50.3 ×10⁻⁶ cm/s,3.7 µM·kg·h/mg,,
Cc1cc(C(=O)NC2CC3CCC(C2)N3c2ccc(C(=O)NCc3ccccc3)cn2)c(C)cc1C(N)=O (stereo not given),,,,,,3 ×10⁻⁶ cm/s,,> 10000 nM,
CCCNc1cc(C(=O)NC2CC3CCC(C2)N3c2ccc(C(=O)C3CC3)cn2)c(C)cc1C(N)=O (stereo not given),1122 nM,24 nM,,,,23.4 ×10⁻⁶ cm/s,,,
C[C@H](NC(=O)c1ccc(N2C3CCC2CC(NC(=O)c2ccc(C(N)=O)c(NC4CCC4)c2)C3)nc1)c1ccc(N2CCN(C)CC2)cc1 (stereo not given in full),,160 nM,,,,0.46 ×10⁻⁶ cm/s,,59 nM,
CCNC(=O)c1ccc(N2C3CCC2CC(NC(=O)c2ccc(C(N)=O)c(NCC4CC4)c2)C3)nc1 (stereo not given),2170 nM,104 nM,,,,32.4 ×10⁻⁶ cm/s,,,
NC(=O)c1ccc(C(=O)NC2CC3CCC(C2)N3c2ccc(C(=O)NCc3ccccc3)cn2)cc1 (stereo not given),,445 nM,,,,0.06 ×10⁻⁶ cm/s,,5200 nM,
C[C@H](NC(=O)c1ccc(N2C3CCC2CC(NC(=O)c2ccc(C(N)=O)c(NCC4CC4)c2)C3)nc1)c1ccc(N2CCN(C)CC2)cc1 (stereo not given in full),,80 nM,,,,0.15 ×10⁻⁶ cm/s,,42 nM,clearance [18]: 157 mL/min/kg
COc1cccc(C(=O)NC2CC3CCC(C2)N3c2ccc(C(=O)NCc3ccc(N4CCN(C)CC4)cc3)cn2)c1C (stereo not given),,108 nM,,,,7.4 ×10⁻⁶ cm/s,,579 nM,"metabolised at 0.5 h, 15 µM [16]: 28%; half-life [19]: 6.5 h; solubility kinetic [17]: 285 µM; AUC/dose (Rattus norvegicus [20]): 0.23 µM·kg·h/mg; bioavailability [21]: 28%; clearance [18]: 112 mL/min/kg"
Cc1cc(C(N)=O)c(NC(C)C)cc1C(=O)NC1CC2CCC(C1)N2c1ccc(C(=O)C2CC2)cn1 (stereo not given),130 nM,21 nM,33%,1.5 h,63.2 mL/min/kg,20.6 ×10⁻⁶ cm/s,0.57 µM·kg·h/mg,,
CCC(CC)Nc1cc(C(=O)NC2CC3CCC(C2)N3c2ccc(C(C)=O)cn2)c(C)cc1C(N)=O (stereo not given),44 nM,28 nM,,,,,,,half-life [11]: 1.7 h; bioavailability [12]: 4%; clearance [13]: 51.8 mL/min/kg; AUC/dose (Rattus norvegicus [14]): 0.6 µM·kg·h/mg
COc1cccc(C(=O)NC2CC3CCC(C2)N3c2ccc(C(=O)N[C@@H](C)c3ccccc3)cn2)c1C (stereo not given in full),,126 nM,,,,38 ×10⁻⁶ cm/s,,421 nM,"metabolised at 0.5 h, 15 µM [16]: 68%; solubility kinetic [17]: 2.2 µM"
CCC(CC)Nc1cc(C(=O)NC2CC3CCC(C2)N3c2ccc(C(=O)C3CC3)cn2)c(C)cc1C(N)=O (stereo not given),82 nM,25 nM,29%,1.8 h,30.8 mL/min/kg,14.3 ×10⁻⁶ cm/s,1.04 µM·kg·h/mg,,
COc1cccc(C(=O)NC2CC3CCC(C2)N3c2ccc(C(=O)N[C@H](C)c3ccccc3)cn2)c1C (stereo not given in full),,7450 nM,,,,,,> 10000 nM,
COc1cccc(C(=O)NC2CC3CCC(C2)N3c2ccc(C(=O)N[C@@H](C)c3ccc(N4CCN(C)CC4)cc3)cn2)c1C (stereo not given in full),,200 nM,,,,6.3 ×10⁻⁶ cm/s,,374 nM,"metabolised at 0.5 h, 15 µM [16]: 37%; half-life [19]: 6.4 h; solubility kinetic [17]: 447 µM; AUC/dose (Rattus norvegicus [20]): 0.71 µM·kg·h/mg; bioavailability [21]: 30%; clearance [18]: 34.3 mL/min/kg"
CC(=O)c1ccc(N2C3CCC2CC(NC(=O)c2ccc(C(N)=O)c(NCC4CC4)c2)C3)nc1 (stereo not given),182 nM,40 nM,42%,7 h,71.5 mL/min/kg,44.2 ×10⁻⁶ cm/s,0.5 µM·kg·h/mg,,
NC(=O)c1ccc(C(=O)NC2CC3CCC(C2)N3c2ccc(C(=O)NC3CCCC3)cn2)cc1NCC1CC1 (stereo not given),351 nM,89 nM,0%,0.6 h,63.5 mL/min/kg,4.8 ×10⁻⁶ cm/s,0.49 µM·kg·h/mg,,
CC[C@H](C)Nc1cc(C(=O)NC2CC3CCC(C2)N3c2ccc(C(=O)C3CC3)cn2)c(C)cc1C(N)=O (stereo not given in full),252 nM,,20%,1 h,38.5 mL/min/kg,24 ×10⁻⁶ cm/s,0.87 µM·kg·h/mg,,
CC(C)C(=O)c1ccc(N2C3CCC2CC(NC(=O)c2ccc(C(N)=O)c(NCC4CC4)c2)C3)nc1 (stereo not given),1610 nM,1140 nM,,,,,,,
